Results on 14 molecules are retold here after patent US9957271B2, “Substituted bicyclic aza-heterocycles and analogues as sirtuin modulators” (GlaxoSmithKline, LLC, priority 2012, dated 2018).

Assay [1] addresses T1, SIRT1 (Homo sapiens, UniProt Q96EB6).
T1 sequence (Q96EB6 1-747): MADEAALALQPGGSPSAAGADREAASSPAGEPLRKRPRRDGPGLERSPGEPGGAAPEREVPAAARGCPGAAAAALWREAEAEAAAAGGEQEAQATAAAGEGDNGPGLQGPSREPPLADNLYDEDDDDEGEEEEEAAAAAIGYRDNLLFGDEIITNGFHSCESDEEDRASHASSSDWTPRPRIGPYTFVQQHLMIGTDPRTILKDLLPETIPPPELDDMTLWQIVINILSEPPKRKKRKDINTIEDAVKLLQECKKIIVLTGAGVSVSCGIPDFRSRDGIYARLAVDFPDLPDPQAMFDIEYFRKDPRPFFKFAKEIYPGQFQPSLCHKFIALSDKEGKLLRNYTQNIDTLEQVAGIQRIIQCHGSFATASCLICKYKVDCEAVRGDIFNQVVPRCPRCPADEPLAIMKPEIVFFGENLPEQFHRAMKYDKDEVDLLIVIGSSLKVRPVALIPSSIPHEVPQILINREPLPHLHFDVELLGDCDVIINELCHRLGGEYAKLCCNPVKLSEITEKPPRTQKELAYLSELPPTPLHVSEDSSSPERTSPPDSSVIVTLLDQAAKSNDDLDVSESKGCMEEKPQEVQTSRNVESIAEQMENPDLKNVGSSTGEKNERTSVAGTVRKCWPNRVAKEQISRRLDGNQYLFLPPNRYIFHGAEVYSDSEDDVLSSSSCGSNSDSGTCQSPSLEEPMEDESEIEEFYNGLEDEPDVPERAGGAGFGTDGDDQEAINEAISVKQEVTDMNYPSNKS
The assay is described as follows: TAMRA based mass spectrometry assay of SIRT1 activity. It counts as biochemical. To be noted: TAMRA assay; for TAMRA EC1.5 (μM): concentration giving 150% activation of SIRT1; for Emax: percent maximum fold activation, read-out: TAMRA % Fold Act. The procedure, abridged: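 Deacetylation of a biotinylated, TAMRA-tagged p53-based peptide (0.5 μM) by 10 nM His-tagged SIRT1 with 120 μM βNAD+, 25 °C for 25 min, pH 8 Tris-acetate buffer, across a compound concentration range. Quenched by formic acid and read by mass spec as product peptide or OAADPR; activity relative to DMSO reactions, nicotinamide defining maximal inhibition.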

The target in assay [2] is T1, SIRT1. Nature of the assay: Trp mass spectrometry assay of SIRT1 activity. Format: biochemical. To be noted: Trp assay; for Trp EC1.5 (μM): concentration giving 150% activation of SIRT1; for Emax: percent maximum fold activation, read-out: Trp % Fold Act. The procedure, abridged:
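Activation readout: EC1.5 (concentration raising activity 50% over control) and percent maximum activation, from mass-spec quantitation of OAADPR or deacetylated Trp peptide. Reaction: 0.5 μM acetylated Trp peptide, 120 μM βNAD+, 10 nM bacterially expressed N-His SIRT1, pH 7.5 HEPES buffer with […], 25 min at 25° C.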

For the molecule `O=C(Nc1cnc2ccc(-c3ccccc3F)nn12)c1ccncn1` [Compound 281], at SIRT1 [1], the “TAMRA EC1.5 (μM)” value is given as “C (EC1.5>25 μM)” and the Emax is under 350%. For the same molecule, on SIRT1 [2], the “Trp EC1.5 (μM)” value is reported as “C (EC1.5>25 μM)” and the Emax was under 350%.

For `O=C(Nc1ccnc(OCC(O)CO)c1)c1cnc2ccc(-c3ccccc3F)nn12` (centres unmarked) [Compound 284], on SIRT1 [1], the “TAMRA EC1.5 (μM)” value is recorded as “C (EC1.5>25 μM)” and the Emax was under 350%. Moreover, on SIRT1 [2], the “Trp EC1.5 (μM)” value is reported as “C (EC1.5>25 μM)” and the Emax was under 350%.

`Cc1cc(OCC(O)CO)nc(NC(=O)c2cnc3ccc(-c4ccccc4Cl)nn23)n1` (centres unmarked) [Compound 285]: at SIRT1 [1], the “TAMRA EC1.5 (μM)” value was “B (EC1.5 1-25 μM)” and the Emax is under 350%. Further, on SIRT1 [2], the “Trp EC1.5 (μM)” value is “B (EC1.5 1-25 μM)” and the Emax was under 350%.

Take `O=C(Nc1cnc2ccc(-c3ccccc3Cl)nn12)c1ccccn1` [Compound 287]: on SIRT1 [1], the “TAMRA EC1.5 (μM)” value is reported as “A (EC1.5<1 μM)” and the Emax is at least 350%. Also, at SIRT1 [2], the “Trp EC1.5 (μM)” value is reported as “C (EC1.5>25 μM)” and the Emax is under 350%.

In the case of `O=C(Nc1cnc2ccc(-c3ccccc3Cl)nn12)c1ncccn1` [Compound 290], at SIRT1 [1], the “TAMRA EC1.5 (μM)” value is “B (EC1.5 1-25 μM)” and the Emax is at least 350%. For the same molecule, at SIRT1 [2], the “Trp EC1.5 (μM)” value is reported as “C (EC1.5>25 μM)” and the Emax was under 350%.

Regarding `O=C(Nc1cnc2ccc(-c3ccccc3Cl)nn12)c1cscn1` [Compound 291], on SIRT1 [1], the “TAMRA EC1.5 (μM)” value is reported as “B (EC1.5 1-25 μM)” and the Emax was at least 350%. Also, on SIRT1 [2], the “Trp EC1.5 (μM)” value was “C (EC1.5>25 μM)” and the Emax was under 350%.

As to `Cc1nc(C(=O)Nc2cnc3ccc(-c4ccccc4Cl)nn23)c(C)s1` [Compound 293], on SIRT1 [1], the “TAMRA EC1.5 (μM)” value is “A (EC1.5<1 μM)” and the Emax is at least 350%. For the same molecule, on SIRT1 [2], the “Trp EC1.5 (μM)” value is listed as “C (EC1.5>25 μM)” and the Emax was under 350%.

`O=C(Nc1ccnc(OCC(F)(F)F)c1)c1cnc2ccc(-c3ccccc3C(F)(F)F)nn12` [Compound 296]: on SIRT1 [1], the “TAMRA EC1.5 (μM)” value is reported as “B (EC1.5 1-25 μM)” and the Emax was under 350%. Further, on SIRT1 [2], the “Trp EC1.5 (μM)” value is on record as “B (EC1.5 1-25 μM)” and the Emax is under 350%.

For the molecule `O=C(Nc1cnc(OCC(O)CO)cn1)c1cnc2ccc(-c3ccccc3C(F)(F)F)nn12` (centres unmarked) [Compound 297], at SIRT1 [1], the “TAMRA EC1.5 (μM)” value is on record as “A (EC1.5<1 μM)” and the Emax is at least 350%. On SIRT1 [2], the “Trp EC1.5 (μM)” value is on record as “B (EC1.5 1-25 μM)” and the Emax is under 350%.

Turning to `O=C(Nc1cnc2ccc(-c3ccccc3F)nn12)c1nccs1` [Compound 303], at SIRT1 [1], the “TAMRA EC1.5 (μM)” value was “B (EC1.5 1-25 μM)” and the Emax is under 350%. At SIRT1 [2], the “Trp EC1.5 (μM)” value is listed as “C (EC1.5>25 μM)” and the Emax was under 350%.

For `O=C(Nc1cnc2ccc(-c3ccccc3F)nn12)c1cccc(OCC(O)CO)n1` (centres unmarked) [Compound 305], at SIRT1 [1], the “TAMRA EC1.5 (μM)” value is given as “B (EC1.5 1-25 μM)” and the Emax is under 350%. Further, at SIRT1 [2], the “Trp EC1.5 (μM)” value is recorded as “A (EC1.5<1 μM)” and the Emax is under 350%.

With `O=C(Nc1cnc2ccc(-c3ccccc3Cl)nn12)c1cccc(N2CCC2)n1` [Compound 308], at SIRT1 [1], the “TAMRA EC1.5 (μM)” value was “A (EC1.5<1 μM)” and the Emax is at least 350%. Further, at SIRT1 [2], the “Trp EC1.5 (μM)” value is recorded as “A (EC1.5<1 μM)” and the Emax was under 350%.

On to `O=C(Nc1cnc2ccc(-c3ccccc3Cl)nn12)c1cccc(OCC(O)CO)n1` (centres unmarked) [Compound 309], for which, at SIRT1 [1], the “TAMRA EC1.5 (μM)” value is “A (EC1.5<1 μM)” and the Emax is at least 350%. For the same molecule, at SIRT1 [2], the “Trp EC1.5 (μM)” value is reported as “A (EC1.5<1 μM)” and the Emax was under 350%.

Take `O=C(Nc1nccc(OCC(F)(F)F)n1)c1cnc2ccc(-c3ccccc3C(F)(F)F)nn12` [Compound 311]: on SIRT1 [1], the “TAMRA EC1.5 (μM)” value was “A (EC1.5<1 μM)” and the Emax was at least 350%. Also, on SIRT1 [2], the “Trp EC1.5 (μM)” value is “A (EC1.5<1 μM)” and the Emax is at least 350%.
